# Data published in patent publication US12311019B2, “Vaccine composition and uses thereof” (Imugene Limited, priority 2018, dated 2025).
# Entries after “also recorded” stand apart in the source; their conditions may differ.
# Tests used:
# [1] = tested on: rat anti-mouse PD1 monoclonal antibody (mAb) (Biolegend, clone 29F.1A12); test: Colony blot assay of E. coli clones expressing GST-fused overlapping mPD1 peptides; assay type: binding; conditions: GST-fused 15-mer
# Excerpt: The protein sequence corresponding to the extracellular domain of mouse PD-1 (Q02242; Uniprot) was electronically back-translated into DNA sequences (ATG:Biosynthetics GmbH; Merzhausen, Germany). The protein-coding DNA sequences were partitioned into uniformly sized peptide-CDS as overlapping peptides in 15 amino acids (aa) length, with an offset of 3 aa, and the resulted DNA sequences were inserted into the expression vector pEPX-1 (ATG:Biosynthetics GmbH; Merzhausen, Germany). […] Expression vectors were used for transformation of E. coli strain BL21. Colonies (clones) of E. coli harbouring the expression vectors were picked from plates supplemented with Kanamycin and used for screening by colony blot assay. A colony harbouring the expression vector with no insert (i.e. control) was also picked.
# The clones of interest were replicated onto nitrocellulose membranes and lysed with lysis solution (Tris-HCl pH 8.0 50 mM, Lysozyme 200 μg/ml), followed by three cycles of freezing at −80C and thawing at 37C. After the last step of thawing, the membranes were incubated with the blocking solution containing PBS-5% skim milk. The blocking solution was discarded and the membranes were incubated for 2 h at RT with rat anti-mouse PD1 monoclonal antibody (mAb) (Biolegend, clone 29F.1A12). […]
# [2] = molecular target: T1, Jurkat T cells expressing mPD1 (Mus musculus, UniProt Q02242); test: Inhibition of anti-mouse PD1 mAb binding to mPD1-positive Jurkat T cells; assay type: cell-based; conditions: mAb pre-incubated with different concentrations of JT-mPD1
# T1 construct: expressed in transfected cells; host or cells: Jurkat E6.1 NF-kB::eGFP reporter T cells (human)
# T1 sequence (Q02242 25-288): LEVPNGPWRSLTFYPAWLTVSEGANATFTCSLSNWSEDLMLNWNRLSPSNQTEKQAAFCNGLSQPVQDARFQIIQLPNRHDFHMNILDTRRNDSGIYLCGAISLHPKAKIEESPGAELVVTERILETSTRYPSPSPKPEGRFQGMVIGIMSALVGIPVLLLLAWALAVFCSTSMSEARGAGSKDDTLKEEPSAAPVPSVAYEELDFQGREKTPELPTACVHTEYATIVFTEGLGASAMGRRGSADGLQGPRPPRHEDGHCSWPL
# Protocol: To produced T cells expressing mouse PD-1, Jurkat E6.1 NF-κB::eGFP reporter T cell line and the K562 stimulator cell line were cultured as previously described (Battin et al. PLoS One, 2017, 12(5):e0178220; PMID: 28542462). JE6.1 NF-kB::eGFP reporter cells expressing mouse PD-1 have been previously described (Jutz et al. Oncotarget, 2017, 8(39):64892-64906; PMID: 29029399). T cell stimulator cells, based on the K562 cell line (K562S), were generated by retrovirally transducing a CD5L-OKT3scFv-CD14 construct encoding an anti-human CD3 single chain fragment fused to human CD14 (Leitner et al. J. Immunol. Methods, 2010, 362(1-2):131-141; PMID: 20858499). K562S stimulate human T cells and T cell lines by ligating their TCR-CD3 complex. In order to separate stimulator cells from reporter cells, K562S were engineered to constitutively express a red fluorescent protein (RFP). […] To confirm cell surface expression of respective molecules, a PE-conjugated anti-mPD-1 antibody (29F.1A12) from Biolegend (San Diego, CA) was used. Membrane-bound anti-CD3 fragment on K562S cells was detected with a PE-conjugated goat-anti-mouse IgG (H+L) antibody (Jackson ImmunoResearch, West Grove, PA). […] Data was analysed using FlowJo software (version 10.0.8., Tree Star, Ashland, OR) and Graphpad Prism (version 5, GraphPad Software, Inc., La Jolla, CA). […]
sequence,measurement,setting,value
"ISLHPKAKIEESPGA (listed as Mus musculus) [JT-mPD1, amino acid residues 126-140 of mouse PD1 (Uniprot Q02242)]",reactivity to the rat anti-mouse PD1 monoclonal antibody,[1],reactive
same,inhibition of binding of anti-mouse PD1 mAb to mPD1-positive Jurkat T cells,[2],dose-dependently inhibited; also recorded: inhibited dose-dependently
